Measurements taken from ChEMBL document CHEMBL1909529, “Molecular dynamics simulations and MM/GBSA methods to investigate binding mechanisms of aminomethylpyrimidine inhibitors with DPP-IV” (Bioorg Med Chem Lett, 2011).

Target: Dipeptidyl peptidase 4 (Homo sapiens, UniProt P27487)
Experiment: Inhibition of DPP4

Dipeptidyl peptidase 4, sequence (P27487 whole entry): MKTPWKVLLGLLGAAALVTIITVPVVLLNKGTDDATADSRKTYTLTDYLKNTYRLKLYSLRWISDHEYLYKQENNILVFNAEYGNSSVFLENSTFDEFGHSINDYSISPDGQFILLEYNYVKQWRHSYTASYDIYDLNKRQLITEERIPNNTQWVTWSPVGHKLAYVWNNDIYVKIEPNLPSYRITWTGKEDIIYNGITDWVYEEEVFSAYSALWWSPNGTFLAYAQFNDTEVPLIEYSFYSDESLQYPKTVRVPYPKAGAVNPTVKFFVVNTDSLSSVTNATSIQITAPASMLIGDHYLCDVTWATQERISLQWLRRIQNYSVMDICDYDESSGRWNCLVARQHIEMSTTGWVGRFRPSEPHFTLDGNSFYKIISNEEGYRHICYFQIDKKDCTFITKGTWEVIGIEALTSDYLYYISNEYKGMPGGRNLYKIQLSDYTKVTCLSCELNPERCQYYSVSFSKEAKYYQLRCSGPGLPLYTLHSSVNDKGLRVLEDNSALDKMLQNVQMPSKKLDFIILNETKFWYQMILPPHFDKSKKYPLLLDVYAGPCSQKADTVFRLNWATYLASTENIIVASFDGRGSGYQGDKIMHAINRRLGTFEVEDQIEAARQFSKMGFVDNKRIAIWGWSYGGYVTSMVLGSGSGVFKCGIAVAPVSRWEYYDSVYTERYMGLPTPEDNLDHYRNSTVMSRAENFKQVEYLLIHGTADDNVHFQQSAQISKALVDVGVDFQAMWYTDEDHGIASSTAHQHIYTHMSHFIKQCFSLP

IC50: 3 nM
Compound: NCc1c(N)nc(-c2cc(F)cc(F)c2)nc1-c1ccc(Cl)cc1Cl
